# In publication PMC6148246, “HS-1371, a novel kinase inhibitor of RIP3-mediated necroptosis” (Experimental & Molecular Medicine, 2018):
# Legend:
# L929 = assay: TNF plus zVAD-induced necroptosis in L929 cells; assay type: cell-based, mouse
# Protocol: (§1) Cells were pretreated with DAB or HS-1371 for 2 h and then treated with TSZ (6 h for immunoblotting, 24 h for cell death assay). Cell lysates were analyzed by immunoblotting (left bottom panel), and cell viability was analyzed by MTT assay (right panel). The results are presented as means ± SEM. *P < 0.05, **P < 0.01, ***P < 0.001. c, d HS-1371 had the same effect on mouse cells. L929 (mouse sarcoma, c) and MEF (mouse embryonic fibroblast, d) cells were pretreated with inhibitors and then necroptosis was induced by TNF. Cell lysates were analyzed by immunoblotting (upper panel), and cell viability was analyzed by MTT assay (bottom panel). The results are presented as means ± SEM. *P < 0.05, **P < 0.01, ***P < 0.001
# NF-κB pathway = assay: TNF- or LPS-induced NF-κB signaling (immunoblot); assay type: cell-based
# Protocol: Supplementary Figure 1. Identification of HS-1371 as a novel RIP3 kinase inhibitor.
# Detailed interaction patterns in the region surrounded by DFG motif and αC helix of RIP3.
# Hydrogen bonds are indicated with dotted lines.
# Supplementary Figure 2. The effect of HS-1371 was compared with GSK’872.
# (a) Overexpression of RIP3 could induce S227 phosphorylation without stimuli. HEK293T cells were transiently transfected with Flag-hRIP3, and cells were treated with or without DAB for incubation periods. After cells were harvested, cell lysates were analyzed by […]
# kinase inhibitor. HT-29 cells were treated with HS -1371 or GSK’872 indicated concentrations for 9 h, and cell lysates were analyzed by immunoblotting.
# (c) Cytotoxicity of HS-1371 was compared with GSK’872. HT-29 cells were treated with 2 kinase inhibitors for 24 h and cell viability was analyzed by MTT assay.
# (d) Inhibition of MLKL phosphorylation by HS-1371 was compared with other two RIP3 kinases inhibitors, DAB (5 μM) and GSK’872 (5 μM). […] Cell lysates were analyzed by […]
# (§2) HeLa, L929, and MEF cells were pretreated with HS-1371 (5 μM) for 2 h, and treated with TNF (30 ng/mL) for indicated time points. Cell lysates were analyzed by immunoblotting. […]
# (a) RAW264.7 cells were treated with LPS (1 μg/mL) for indicated time points and cell lysates were analyzed by immunoblotting. […]
# H2009 cells = H2009 cells ectopically expressing RIP3, TSZ-induced necroptosis; assay type: cell-based, human; details: H2009 with ectopic RIP3
# Protocol: HEK293T, HT-29, H2009, L929, HeLa, and MEF cells were grown in Dulbecco’s Modified Eagle’s Medium (DMEM) supplemented with 10% fetal bovine serum (FBS). RAW264.7 cells were grown in Roswell Park Memorial Institute (RPMI) 1640 media supplemented with 10% FBS. To generate cell lines stably expressing the RIP3 construct, HeLa and H2009 cells were infected with pLX303-hRIP3 lentivirus.
# as §1
# [1] = tested on: RAW264.7 macrophage cells; assay: LPS plus zVAD-induced cytokine expression in RAW264.7 cells (real-time PCR); assay type: cell-based, mouse; details: RAW264.7, LPS + zVAD, 5 and 10 μM, pre 1 h or post 2 h
# Protocol: Total RNA was extracted using the TRIzol reagent (Life Technologies) according to the manufacturer’s instructions. Total RNA (1 μg) from each sample was converted to cDNA using MMLV reverse transcriptase (MGmed, Seoul, Korea). Equal amounts of cDNA product were used in reverse transcription-PCR conducted using the GoTaq® Green Master Mix (Promega). Real-time PCR amplification was performed using iQ™ SYBR® Green Supermix (Bio-rad). […]
# as §2
# (a) RAW264.7 cells were treated with LPS (1 μg/mL) for indicated time points and cell lysates were analyzed by immunoblotting.
# (b) RAW264.7 cells were pretreated with zVAD (20 μM) for 1 h and then treated with LPS (1 μg/mL) for indicated time points. Cell lysates were analyzed by immunoblotting.
# (c) IL-6, TNF-α, and IL-1β expression levels were determined by RT-PCR analysis. […]
# (d) RAW264.7 cells were pretreated with zVAD (20 μM) and HS-1371 (5 μM) for 1 h and then treated with LPS (1 μg/mL) for 4 h. Cell lysates were analyzed by immunoblotting (left panel).
# IL-1β and IL-6 expression levels were determined by real-time PCR analysis. […]
# (e) IL-1β, IL-6 and TNF-α expression levels were determined by real -time PCR analysis. […]
compound,measurement,setting,value
"Cc1ccc(Oc2ccnc3cc(-c4cnn(C5CCNCC5)c4)ccc23)cc1 [HS-1371, 7-(1-(Piperidin-4-yl)-1H-pyrazol-4-yl)-4-(p-tolyloxy)quinoline]",TNF plus zVAD-induced necroptosis,L929,prevented
same,TNF-induced NF-κB signaling,"NF-κB pathway; HT-29, HeLa(RIP3), L929, MEF, 5 μM pretreated 2 h, TNF 30 ng/mL",did not affect
same,LPS-induced induction of the NF-κB pathway,NF-κB pathway; data not shown,not altered
same,TSZ-induced necroptosis,H2009 cells,prevented
same,"IL-1β, IL-6 and TNF-α expression",[1],reduced
